Each compound was assayed on HT-29 cells (assay: HT-29 necroptosis cell viability assay (TNF-α/SMAC mimetic/zVAD-FMK, CellTiter-Glo)). Details: HT-29 necroptosis cell viability assay; class symbols for IC50; read-out: Activity.
Format: cell-based
Procedure, shortened: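 HT-29 cells (~5,000/well, overnight) in FBS-free McCoy's 5A with TNF-α 10 ng/ml, SMAC mimetic 6 μM and zVAD-FMK 10 μM plus 10-point 1:3 compound titration, 20 h at 37°C. ATP measured by CellTiter-Glo luminescence; IC50 as geometric mean of duplicates.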

Row | SMILES | IC50
1 | Cc1nc(C2CC(C(N)=O)C2)sc1Oc1ccc(-n2ncn(Cc3c(F)cccc3F)c2=O)cc1F (stereo not drawn) [Example 167, 3-(5-(4-(4-(2,6-difluorobenzyl)-5-oxo-4,5-dihydro-1H-1,2,4-triazol-1-yl)-2-fluorophenoxy)-4-methylthiazol-2-yl)cyclobutane-1-carboxamide] | < 100 nM

Same assay, conditions: Homo sapiens, HT-29, HT-29 necroptosis cell viability assay; class symbols for IC50; read-out: Activity

Row | SMILES | IC50
2 | Cc1nc(CO)c(Oc2ccc(-n3ncn(Cc4c(F)cccc4F)c3=O)cc2)s1 [Example 146] | 100 to 1000 nM
3 | O=c1n(Cc2c(F)cccc2F)cnn1-c1ccc(Oc2scnc2C(F)F)c(F)c1 [Example 147, 4-(2,6-difluorobenzyl)-2-(4-((4-(difluoromethyl)thiazol-5-yl)oxy)-3-fluorophenyl)-2,4-dihydro-3H-1,2,4-triazol-3-one] | < 100 nM
4 | Cc1nc(C(=O)NCCN)sc1Oc1ccc(-n2ncn(Cc3ccccc3F)c2=O)cc1F [Example 148, N-(2-aminoethyl)-5-(2-fluoro-4-(4-(2-fluorobenzyl)-5-oxo-4,5-dihydro-1H-1,2,4-triazol-1-yl)phenoxy)-4-methylthiazole-2-carboxamide] | < 100 nM
5 | O=c1n(Cc2c(F)cccc2F)cnn1-c1ccc(Oc2ncsc2C(F)F)c(F)c1 [Example 152, 4-(2,6-difluorobenzyl)-2-(4-((5-(difluoromethyl)thiazol-4-yl)oxy)-3-fluorophenyl)-2,4-dihydro-3H-1,2,4-triazol-3-one] | < 100 nM
6 | CC1(N)CN(c2nc(C(F)F)c(Oc3ccc(-n4ncn(Cc5c(F)cccc5F)c4=O)cc3F)s2)C1 [Example 153, 2-(4-((2-(3-amino-3-methylazetidin-1-yl)-4-(difluoromethyl)thiazol-5-yl)oxy)-3-fluorophenyl)-4-(2,6-difluorobenzyl)-2,4-dihydro-3H-1,2,4-triazol-3-one] | < 100 nM
7 | Cc1nc(CC(C)(C)O)sc1Oc1ccc(-n2ncn(Cc3c(F)cccc3F)c2=O)cc1F [Example 154, 4-(2,6-difluorobenzyl)-2-(3-fluoro-4-((2-(2-hydroxy-2-methylpropyl)-4-methylthiazol-5-yl)oxy)phenyl)-2,4-dihydro-3H-1,2,4-triazol-3-one] | < 100 nM
8 | Cc1nc(CC#N)sc1Oc1ccc(-n2ncn(Cc3c(F)cccc3F)c2=O)cc1F [Example 155, 2-(5-(4-(4-(2,6-difluorobenzyl)-5-oxo-4,5-dihydro-1H-1,2,4-triazol-1-yl)-2-fluorophenoxy)-4-methylthiazol-2-yl)acetonitrile] | < 100 nM
9 | Cc1nc(CO)sc1Oc1ccc(-n2ncn(Cc3c(F)cccc3F)c2=O)cc1F [Example 156, 4-(2,6-difluorobenzyl)-2-(3-fluoro-4-((2-(hydroxymethyl)-4-methylthiazol-5-yl)oxy)phenyl)-2,4-dihydro-3H-1,2,4-triazol-3-one] | < 100 nM
10 | Cc1nc(CO)sc1Oc1ccc(-n2ncn(Cc3c(F)cccc3F)c2=O)cc1 [Example 157, 4-(2,6-difluorobenzyl)-2-(4-((2-(hydroxymethyl)-4-methylthiazol-5-yl)oxy)phenyl)-2,4-dihydro-3H-1,2,4-triazol-3-one] | < 100 nM
11 | Cc1c(CO)nn(C)c1Oc1ccc(-n2nc3n(c2=O)C(c2ccccc2)CC3)cc1F (stereo not drawn) [Example 158, 2-(3-fluoro-4-((3-(hydroxymethyl)-1,4-dimethyl-1H-pyrazol-5-yl)oxy)phenyl)-5-phenyl-2,5,6,7-tetrahydro-3H-pyrrolo[2,1-c][1,2,4]triazol-3-one] | < 100 nM
12 | Cc1nc(CN)sc1Oc1ccc(-n2ncn(Cc3c(F)cccc3F)c2=O)cc1F [Example 159, 2-(4-((2-(aminomethyl)-4-methylthiazol-5-yl)oxy)-3-fluorophenyl)-4-(2,6-difluorobenzyl)-2,4-dihydro-3H-1,2,4-triazol-3-one] | < 100 nM
13 | Cc1nc(CN)sc1Oc1ccc(-n2ncn(Cc3c(F)cccc3F)c2=O)cc1 [Example 160, 2-(4-((2-(aminomethyl)-4-methylthiazol-5-yl)oxy)phenyl)-4-(2,6-difluorobenzyl)-2,4-dihydro-3H-1,2,4-triazol-3-one] | 100 to 1000 nM
14 | O=c1n(Cc2c(F)cccc2F)cnn1C1CCC(Oc2ccccc2)C1 (stereo not drawn) [Example 161, 4-(2,6-difluorobenzyl)-2-(3-phenoxycyclopentyl)-2,4-dihydro-3H-1,2,4-triazol-3-one] | 1000 to 10000 nM
15 | Cc1ncsc1OC1CCC(n2ncn(Cc3c(F)cccc3F)c2=O)CC1 (stereo not drawn) [Example 162, 4-(2,6-difluorobenzyl)-2-(4-((4-methylthiazol-5-yl)oxy)cyclohexyl)-2,4-dihydro-3H-1,2,4-triazol-3-one] | 100 to 1000 nM
16 | Cc1nc(C(C)N)sc1Oc1ccc(-n2ncn(Cc3c(F)cccc3F)c2=O)cc1F (stereo not drawn) [Example 163, 2-(4-((2-(1-aminoethyl)-4-methylthiazol-5-yl)oxy)-3-fluorophenyl)-4-(2,6-difluorobenzyl)-2,4-dihydro-3H-1,2,4-triazol-3-one] | < 100 nM
17 | C/C(=N\O)c1nc(C)c(Oc2ccc(-n3ncn(Cc4c(F)cccc4F)c3=O)cc2F)s1 [Example 164, 4-(2,6-difluorobenzyl)-2-(3-fluoro-4-((2-(1-(hydroxyimino)ethyl)-4-methylthiazol-5-yl)oxy)phenyl)-2,4-dihydro-3H-1,2,4-triazol-3-one] | < 100 nM
18 | O=c1n(Cc2c(F)cccc2F)cnn1-c1cnc(Oc2ccccc2)s1 [Example 165, 4-(2,6-difluorobenzyl)-2-(2-phenoxythiazol-5-yl)-2,4-dihydro-3H-1,2,4-triazol-3-one] | 100 to 1000 nM
19 | Cc1nc(Oc2cccnc2)sc1-n1ncn(Cc2c(F)cccc2F)c1=O [Example 166, 4-(2,6-difluorobenzyl)-2-(4-methyl-2-(pyridin-3-yloxy)thiazol-5-yl)-2,4-dihydro-3H-1,2,4-triazol-3-one] | 100 to 1000 nM
20 | Cc1nc(CC(N)=O)sc1Oc1ccc(-n2ncn(Cc3c(F)cccc3F)c2=O)cc1F [Example 168, 2-(5-(4-(4-(2,6-difluorobenzyl)-5-oxo-4,5-dihydro-1H-1,2,4-triazol-1-yl)-2-fluorophenoxy)-4-methylthiazol-2-yl)acetamide] | < 100 nM
21 | COc1cc(Oc2nc(C)c(-n3ncn(Cc4c(F)cccc4F)c3=O)s2)ccn1 [Example 169, 4-(2,6-difluorobenzyl)-2-(2-((2-methoxypyridin-4-yl)oxy)-4-methylthiazol-5-yl)-2,4-dihydro-3H-1,2,4-triazol-3-one] | 1000 to 10000 nM
22 | Cc1nc(C(F)(F)C(=O)O)sc1Oc1ccc(-n2ncn(Cc3c(F)cccc3F)c2=O)cc1F [Example 170, 2-(5-(4-(4-(2,6-difluorobenzyl)-5-oxo-4,5-dihydro-1H-1,2,4-triazol-1-yl)-2-fluorophenoxy)-4-methylthiazol-2-yl)-2,2-difluoroacetic acid] | 100 to 1000 nM
23 | COC(=O)c1ncsc1Nc1ccc(-n2ncn(Cc3c(F)cccc3F)c2=O)cc1 [Example 171, methyl 5-((4-(4-(2,6-difluorobenzyl)-5-oxo-4,5-dihydro-1H-1,2,4-triazol-1-yl)phenyl)amino)thiazole-4-carboxylate] | 1000 to 10000 nM
24 | Cc1cc(Oc2ccc(-n3ncn(Cc4c(F)cccc4F)c3=O)cc2F)n(C)n1 [Example 172, 4-(2,6-difluorobenzyl)-2-(4-((1,3-dimethyl-1H-pyrazol-5-yl)oxy)-3-fluorophenyl)-2,4-dihydro-3H-1,2,4-triazol-3-one] | < 100 nM

— US20250179061A1 (SIRONAX LTD., priority 2022, published 2025)
